Assay [1] concerns Acinetobacter baumannii ATCC 19606. Briefly: MIC, spiral gradient endpoint assay, A. baumannii. Format: cell-based. The settings on record: ATCC19606; Acinetobacter baumannii ATCC 19606.
Assay [2] concerns the target E. coli RNA polymerase σ^70 holoenzyme (Escherichia coli, UniProt P0A8T7+P0A8V2). Briefly: Fluorescence-detected RNA polymerase assay, E. coli RNA polymerase. Format: biochemical. The settings on record: read-out: IC50 E. coli RNAP.
The test system of assay [3] is Mycobacterium tuberculosis H37Rv. Briefly: MIC, microplate Alamar Blue assay, M. tuberculosis. Format: cell-based.
The test system of assay [4] is Staphylococcus aureus ATCC 12600. Briefly: MIC, spiral gradient endpoint assay, S. aureus ATCC 12600. Format: cell-based. The settings on record: ATCC12600; Staphylococcus aureus ATCC 12600.
The subject of assay [5] is Burkholderia pseudomallei Human/Blood/OH/US/1994. Briefly: microbe, parasite or virus in culture. Format: cell-based. The settings on record: Burkholderia pseudomallei, read-out: MIC B. pseudomallei Human/Blood/OH.
The test system of assay [6] is Burkholderia mallei CHN7. The assay can be described thus: microbe, parasite or virus in culture. The settings on record: Burkholderia mallei, CHN7, read-out: MIC B. mallei CHN7. The class given is cell-based.
The test system of assay [7] is Yersinia pestis C092. The assay can be described thus: microbe, parasite or virus in culture. Format: cell-based. The settings on record: Yersinia pestis, C092, read-out: MIC Y. pestis C092.
Assay [8] concerns Escherichia coli D21f2tolC. The assay can be described thus: MIC, spiral gradient endpoint assay, E. coli D21f2tolC. Format: cell-based. The settings on record: Escherichia coli, D21F2TOLC, read-out: MIC E. coli D21f2toIC.
The test system of assay [9] is Bacillus anthracis Vollum 1b. The assay can be described thus: microbe, parasite or virus in culture. The class given is cell-based. The settings on record: Bacillus anthracis, VOLLUM1B, read-out: MIC B. anthracis Vollum-1b.
Assay [10] deals with Brucella melitensis 16M. Briefly: microbe, parasite or virus in culture. The class given is cell-based. The settings on record: Brucella melitensis, 16M, read-out: MIC B. melitensis 16M.
The test system of assay [11] is Francisella tularensis SCHU4. Briefly: microbe, parasite or virus in culture. The class given is cell-based. The settings on record: Francisella tularensis, SCHU4, read-out: MIC F. tularensis SCHU4.

In brackets after ≈: the same amount, converted by molar mass.

Sequence of E. coli RNA polymerase σ^70 holoenzyme (P0A8T7 whole entry): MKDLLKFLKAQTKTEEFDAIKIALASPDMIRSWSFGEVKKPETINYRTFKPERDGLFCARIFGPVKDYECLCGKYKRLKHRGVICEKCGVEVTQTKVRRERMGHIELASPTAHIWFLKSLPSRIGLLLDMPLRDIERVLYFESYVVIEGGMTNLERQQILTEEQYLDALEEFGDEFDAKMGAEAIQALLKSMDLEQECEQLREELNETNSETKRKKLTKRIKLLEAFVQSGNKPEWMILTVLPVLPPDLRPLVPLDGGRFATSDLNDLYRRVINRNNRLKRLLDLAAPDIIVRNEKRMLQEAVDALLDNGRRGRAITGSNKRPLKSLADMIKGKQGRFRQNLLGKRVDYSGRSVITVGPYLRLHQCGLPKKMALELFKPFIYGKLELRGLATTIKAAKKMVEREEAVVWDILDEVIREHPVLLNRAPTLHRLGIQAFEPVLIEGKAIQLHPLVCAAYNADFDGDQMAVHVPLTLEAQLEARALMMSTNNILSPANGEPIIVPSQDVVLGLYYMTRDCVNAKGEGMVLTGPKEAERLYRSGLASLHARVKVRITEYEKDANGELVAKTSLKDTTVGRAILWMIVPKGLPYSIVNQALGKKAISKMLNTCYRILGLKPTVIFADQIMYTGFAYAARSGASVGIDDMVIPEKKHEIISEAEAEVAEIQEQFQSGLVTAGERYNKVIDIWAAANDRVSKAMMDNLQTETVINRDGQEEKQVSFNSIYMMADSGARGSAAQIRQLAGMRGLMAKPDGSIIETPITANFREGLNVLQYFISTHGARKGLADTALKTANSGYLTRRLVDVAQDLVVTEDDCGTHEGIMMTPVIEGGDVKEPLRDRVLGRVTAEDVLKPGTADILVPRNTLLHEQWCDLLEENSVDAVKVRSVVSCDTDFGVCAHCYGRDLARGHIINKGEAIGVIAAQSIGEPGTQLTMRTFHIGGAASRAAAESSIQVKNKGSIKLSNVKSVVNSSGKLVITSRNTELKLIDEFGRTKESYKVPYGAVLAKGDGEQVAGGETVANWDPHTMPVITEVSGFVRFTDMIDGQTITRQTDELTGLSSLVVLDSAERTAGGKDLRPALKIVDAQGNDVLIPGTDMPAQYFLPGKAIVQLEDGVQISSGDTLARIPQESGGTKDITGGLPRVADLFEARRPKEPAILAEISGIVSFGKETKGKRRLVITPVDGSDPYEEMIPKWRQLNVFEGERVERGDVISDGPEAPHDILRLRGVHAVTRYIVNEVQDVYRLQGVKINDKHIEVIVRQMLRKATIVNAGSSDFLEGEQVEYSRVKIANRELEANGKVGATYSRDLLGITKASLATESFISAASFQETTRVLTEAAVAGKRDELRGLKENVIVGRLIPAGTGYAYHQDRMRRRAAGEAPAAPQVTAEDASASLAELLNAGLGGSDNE
Sequence of E. coli RNA polymerase σ^70 holoenzyme (P0A800 whole entry, further chain): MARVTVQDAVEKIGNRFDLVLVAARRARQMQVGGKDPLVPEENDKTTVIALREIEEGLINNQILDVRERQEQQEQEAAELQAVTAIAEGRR
Sequence of E. coli RNA polymerase σ^70 holoenzyme (P0A8V2 whole entry): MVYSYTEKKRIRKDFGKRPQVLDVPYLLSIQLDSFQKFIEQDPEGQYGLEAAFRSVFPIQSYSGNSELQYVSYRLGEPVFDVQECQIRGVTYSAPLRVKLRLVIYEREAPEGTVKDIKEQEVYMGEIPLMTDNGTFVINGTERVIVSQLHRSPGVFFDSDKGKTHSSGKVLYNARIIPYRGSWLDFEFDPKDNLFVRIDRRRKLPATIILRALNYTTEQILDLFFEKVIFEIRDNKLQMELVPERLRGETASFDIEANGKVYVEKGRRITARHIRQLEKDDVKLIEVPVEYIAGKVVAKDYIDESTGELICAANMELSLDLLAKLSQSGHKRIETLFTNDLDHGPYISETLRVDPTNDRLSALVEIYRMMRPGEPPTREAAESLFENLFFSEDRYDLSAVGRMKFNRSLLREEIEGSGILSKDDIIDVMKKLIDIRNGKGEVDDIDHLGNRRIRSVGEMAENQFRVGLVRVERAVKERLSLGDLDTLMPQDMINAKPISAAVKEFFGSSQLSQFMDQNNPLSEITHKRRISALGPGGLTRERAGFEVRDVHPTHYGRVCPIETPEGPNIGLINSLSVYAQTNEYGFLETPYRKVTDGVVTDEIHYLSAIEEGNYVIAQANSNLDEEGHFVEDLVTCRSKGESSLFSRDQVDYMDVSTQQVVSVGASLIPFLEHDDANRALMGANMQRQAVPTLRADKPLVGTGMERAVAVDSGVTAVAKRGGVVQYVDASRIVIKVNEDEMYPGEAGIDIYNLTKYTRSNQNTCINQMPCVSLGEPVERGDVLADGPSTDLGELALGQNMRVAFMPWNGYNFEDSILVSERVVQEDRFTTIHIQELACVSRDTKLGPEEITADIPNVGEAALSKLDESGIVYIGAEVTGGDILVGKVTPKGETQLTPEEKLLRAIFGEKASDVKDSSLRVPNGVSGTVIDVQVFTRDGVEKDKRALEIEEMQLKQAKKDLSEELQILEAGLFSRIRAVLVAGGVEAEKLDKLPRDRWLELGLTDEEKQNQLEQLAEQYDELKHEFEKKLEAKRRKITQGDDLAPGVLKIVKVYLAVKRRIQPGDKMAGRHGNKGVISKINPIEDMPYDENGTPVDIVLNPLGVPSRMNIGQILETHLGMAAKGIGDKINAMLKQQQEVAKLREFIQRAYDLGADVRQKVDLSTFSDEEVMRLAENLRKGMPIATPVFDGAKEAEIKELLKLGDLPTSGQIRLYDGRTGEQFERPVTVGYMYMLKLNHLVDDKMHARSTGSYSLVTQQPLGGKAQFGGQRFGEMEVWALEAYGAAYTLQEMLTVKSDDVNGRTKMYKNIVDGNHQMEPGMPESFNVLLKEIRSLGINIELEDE
Sequence of E. coli RNA polymerase σ^70 holoenzyme (P00579 whole entry, further chain): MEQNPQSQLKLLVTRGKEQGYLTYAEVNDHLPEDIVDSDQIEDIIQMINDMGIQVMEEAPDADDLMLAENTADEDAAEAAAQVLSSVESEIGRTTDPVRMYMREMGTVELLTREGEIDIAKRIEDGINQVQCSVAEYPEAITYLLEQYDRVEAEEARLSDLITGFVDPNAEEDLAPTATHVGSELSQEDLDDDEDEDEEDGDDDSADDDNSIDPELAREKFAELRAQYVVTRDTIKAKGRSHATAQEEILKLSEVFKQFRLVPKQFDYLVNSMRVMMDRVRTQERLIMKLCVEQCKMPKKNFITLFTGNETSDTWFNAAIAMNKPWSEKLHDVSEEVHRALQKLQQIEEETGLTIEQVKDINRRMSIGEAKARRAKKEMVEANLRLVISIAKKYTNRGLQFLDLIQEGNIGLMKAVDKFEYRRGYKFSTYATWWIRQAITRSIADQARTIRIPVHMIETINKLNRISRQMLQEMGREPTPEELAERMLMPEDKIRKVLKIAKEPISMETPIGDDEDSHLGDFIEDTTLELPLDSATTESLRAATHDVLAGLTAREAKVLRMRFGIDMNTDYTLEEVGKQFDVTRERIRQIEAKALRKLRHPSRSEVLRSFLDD
Sequence of E. coli RNA polymerase σ^70 holoenzyme (P0A7Z4 whole entry, further chain): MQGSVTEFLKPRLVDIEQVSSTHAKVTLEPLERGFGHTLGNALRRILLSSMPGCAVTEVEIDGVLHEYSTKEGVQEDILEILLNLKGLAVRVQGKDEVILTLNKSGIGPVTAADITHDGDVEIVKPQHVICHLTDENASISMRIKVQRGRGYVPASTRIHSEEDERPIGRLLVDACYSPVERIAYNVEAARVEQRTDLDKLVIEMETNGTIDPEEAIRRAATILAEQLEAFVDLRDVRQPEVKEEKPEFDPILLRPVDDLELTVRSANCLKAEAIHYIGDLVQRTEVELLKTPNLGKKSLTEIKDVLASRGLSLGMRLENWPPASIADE

On to `COC(=O)N/C=C/CCC(C)c1cc(O)c(C(=O)C(C)=Cc2cnc(CCC(C)C)s2)c(=O)o1` (mixture of isomers) [APY137, methyl ((1E)-5-(4-hydroxy-3-(3-(2-isopentylthiazol-5-yl)-2-methylacryloyl)-2-oxo-2H-pyran-6-yl)hex-1-en-1-yl)carbamate], for which the MIC in [1] is > 40 µg/mL; in [3], 6 µg/mL; in [4], 1 µg/mL; in assay [5], 30 µg/mL; in [6], 10 µg/mL; in assay [7], 10 µg/mL. Also, the MIC in assay [8] came to 0.08 µg/mL; in assay [9] it was 3 µg/mL; in assay [10], 6 µg/mL; in [11], 50 µg/mL. For the same molecule, the IC50 in [2] was 10 nM.
Regarding `COC(=O)N/C=C/CCC(C)c1cc(O)c(C(=O)C(C)=Cc2ccc(OCC(F)F)cc2)c(=O)o1` (mixture of isomers) [APY132, methyl ((1E)-5-(3-(3-(4-(2,2-difluoroethoxy)phenyl)-2-methylacryloyl)-4-hydroxy-2-oxo-2H-pyran-6-yl)hex-1-en-1-yl)carbamate], the MIC in assay [1] was > 40 µg/mL; in assay [3], 10 µg/mL; in [4], 5 µg/mL; in assay [5], > 50 µg/mL; in assay [6], > 50 µg/mL; in [7], > 50 µg/mL. In addition, the MIC was 0.7 µg/mL in assay [8], 30 µg/mL in assay [9], 30 µg/mL in [10] and > 50 µg/mL in assay [11]. Moreover, the IC50 in [2] stood at 200 nM.
For the molecule `COC(=O)N/C=C/CCC(C)c1cc(O)c(C(=O)C(C)=Cc2ccc(OCC(F)F)s2)c(=O)o1` (mixture of isomers) [APY138, methyl ((1E)-5-(3-(3-(5-(2,2-difluoroethoxy)thiophen-2-yl)-2-methylacryloyl)-4-hydroxy-2-oxo-2H-pyran-6-yl)hex-1-en-1-yl)carbamate], the MIC in assay [1] is > 40 µg/mL; in assay [3] it was 10 µg/mL; in assay [4] it was 10 µg/mL; in [5] it was > 50 µg/mL; in assay [6], > 50 µg/mL; in [7], 50 µg/mL. Further, the MIC in assay [8] was 0.5 µg/mL; in assay [9], 50 µg/mL; in [10], 50 µg/mL; in assay [11], > 50 µg/mL. For the same molecule, the IC50 in [2] came out at 300 nM.
Consider `CCC(C)Oc1ccc2c(c1)cc(C=C(C)C(=O)c1c(O)cc(C(C)CC/C=C/NC(=O)OC)oc1=O)n2C` (stereo not drawn) [APY122, methyl ((1E)-5-(3-(3-(5-(sec-butoxy)-1-methyl-1H-indol-2-yl)-2-methylacryloyl)-4-hydroxy-2-oxo-2H-pyran-6-yl)hex-1-en-1-yl)carbamate], for which the MIC is > 40 µg/mL in [1]; > 50 µg/mL in [3]; > 40 µg/mL in [4]; > 50 µg/mL in [5]; > 50 µg/mL in [6]; > 50 µg/mL in assay [7]. Further, the MIC in assay [8] is 0.5 µg/mL (≈ 0.932 µM); in [9] it was 50 µg/mL (≈ 93.2 µM); in [10], > 50 µg/mL; in assay [11] it was 50 µg/mL (≈ 93.2 µM). Further, the IC50 in assay [2] came to 100 nM.
As for `COC(=O)N/C=C/CCC(C)c1cc(O)c(C(=O)C(C)=Cc2sc(CC(C)C)cc2Br)c(=O)o1` (mixture of isomers) [APY124, methyl ((1E)-5-(3-(3-(3-bromo-5-isobutylthiophen-2-yl)-2-methylacryloyl)-4-hydroxy-2-oxo-2H-pyran-6-yl)hex-1-en-1-yl)carbamate], the MIC in [1] was 6 µg/mL; in assay [3], 50 µg/mL; in [4] it was 0.9 µg/mL; in [5] it was 30 µg/mL; in assay [6], 10 µg/mL; in assay [7], 6 µg/mL. Further, the MIC stood at 0.3 µg/mL in [8], 0.2 µg/mL in assay [9], 10 µg/mL in assay [10] and 6 µg/mL in assay [11]. In assay [2], the IC50 was found to be 4 nM.
Consider `CCCOc1ccc2c(c1)cc(C=C(C)C(=O)c1c(O)cc(C(C)CC/C=C/NC(=O)OC)oc1=O)n2C` (mixture of isomers) [APY121, methyl ((1E)-5-(4-hydroxy-3-(2-methyl-3-(1-methyl-5-propoxy-1H-indol-2-yl)acryloyl)-2-oxo-2H-pyran-6-yl)hex-1-en-1-yl)carbamate], for which the MIC in assay [1] is > 40 µg/mL; in [3] it was > 50 µg/mL; in assay [4], > 40 µg/mL; in [5] it was > 50 µg/mL; in [6], > 50 µg/mL; in assay [7], > 50 µg/mL. Also, the MIC was 0.8 µg/mL in assay [8], > 50 µg/mL in [9], > 50 µg/mL in assay [10] and > 50 µg/mL in [11]. Further, the IC50 in assay [2] was determined as 500 nM.
For the molecule `CCCOc1ccc(C=C(C)C(=O)c2c(O)cc(C(C)CC/C=C/NC(=O)OC)oc2=O)c(C)c1` (mixture of isomers) [APY128, methyl ((1E)-5-(4-hydroxy-3-(2-methyl-3-(2-methyl-4-propoxyphenyl)acryloyl)-2-oxo-2H-pyran-6-yl)hex-1-en-1-yl)carbamate], the MIC was > 40 µg/mL in assay [1]; 30 µg/mL in [3]; 4 µg/mL in assay [4]; > 50 µg/mL in assay [5]; > 50 µg/mL in assay [6]; > 50 µg/mL in assay [7]. In addition, the MIC is 0.6 µg/mL in assay [8], 10 µg/mL in assay [9], > 50 µg/mL in assay [10] and > 50 µg/mL in [11]. Moreover, in assay [2], the IC50 stood at 500 nM.
With `CCCOc1cccc(C=C(C)C(=O)c2c(O)cc(C(C)CC/C=C/NC(=O)OC)oc2=O)c1` (mixture of isomers) [APY43, methyl (E)-5-(4-hydroxy-3-((E/Z)-2-methyl-3-(3-propoxyphenyl)acryloyl)-2-oxo-2H-pyran-6-yl)hex-1-enylcarbamate], the MIC in [1] was > 40 µg/mL; in assay [3] it was 6 µg/mL; in [4], > 40 µg/mL; in [5] it was 50 µg/mL; in assay [6], 50 µg/mL; in [7], > 50 µg/mL. Besides, the MIC in assay [8] was determined as 0.4 µg/mL; in assay [9], 10 µg/mL; in [10] it was 3 µg/mL; in assay [11], 30 µg/mL. The IC50 in [2] is 200 nM.
Take `CCCCOc1cccc(C=C(C)C(=O)c2c(O)cc(C(C)CC/C=C/NC(=O)OC)oc2=O)c1` (mixture of isomers) [APY42, methyl (E)-5-(3-((E/Z)-3-(3-butoxyphenyl)-2-methylacryloyl)-4-hydroxy-2-oxo-2H-pyran-6-yl)hex-1-enylcarbamate]: the MIC is > 40 µg/mL in [1]; 30 µg/mL in assay [3]; > 40 µg/mL in [4]; 50 µg/mL in assay [5]; 50 µg/mL in assay [6]; > 50 µg/mL in assay [7]. Moreover, the MIC worked out at 0.4 µg/mL in assay [8], 10 µg/mL in assay [9], 6 µg/mL in assay [10] and 50 µg/mL in [11]. Also, the IC50 in assay [2] was 30 nM.
For `CCCCOc1ccc(C=C(C)C(=O)c2c(O)cc(C(C)CC/C=C/NC(=O)OC)oc2=O)c(C)c1` (mixture of isomers) [APY129, methyl ((1E)-5-(3-(3-(4-butoxy-2-methylphenyl)-2-methylacryloyl)-4-hydroxy-2-oxo-2H-pyran-6-yl)hex-1-en-1-yl)carbamate], the MIC in assay [1] is 40 µg/mL; in assay [3], 30 µg/mL; in [4], 2 µg/mL; in [5], > 50 µg/mL; in assay [6], 50 µg/mL; in assay [7], 30 µg/mL. Also, the MIC in assay [8] was 0.3 µg/mL; in assay [9] it was 3 µg/mL; in [10], 10 µg/mL; in assay [11] it was > 50 µg/mL. Also, the IC50 in [2] was found to be 50 nM.
In the case of `COC(=O)N/C=C/CCC(C)c1cc(O)c(C(=O)C(C)=Cc2ccc(OCC(F)(F)F)cc2)c(=O)o1` (mixture of isomers) [APY117, methyl ((1E)-5-(4-hydroxy-3-(2-methyl-3-(4-(2,2,2-trifluoroethoxy)phenyl)acryloyl)-2-oxo-2H-pyran-6-yl)hex-1-en-1-yl)carbamate], the MIC was > 40 µg/mL in [1]; 10 µg/mL in assay [3]; 2 µg/mL in assay [4]; > 50 µg/mL in assay [5]; 50 µg/mL in assay [6]; 50 µg/mL in assay [7]. For the same molecule, the MIC in assay [8] is 0.4 µg/mL; in assay [9], 10 µg/mL; in assay [10], 10 µg/mL; in assay [11], > 50 µg/mL. The IC50 in assay [2] turned out to be 100 nM.
With `COC(=O)N/C=C/CCC(C)c1cc(O)c(C(=O)C(C)=Cc2ccc(Oc3ccc(C(F)(F)F)cc3)s2)c(=O)o1` (mixture of isomers) [APY119, methyl ((1E)-5-(4-hydroxy-3-(2-methyl-3-(5-(4-(trifluoromethyl)phenoxy)thiophen-2-yl)acryloyl)-2-oxo-2H-pyran-6-yl)hex-1-en-1-yl)carbamate], the MIC in [1] is > 40 µg/mL; in assay [3], > 50 µg/mL; in assay [4], 2 µg/mL; in assay [5], 6 µg/mL; in assay [6] it was 3 µg/mL; in assay [7], 3 µg/mL. For the same molecule, the MIC in [8] was found to be 0.1 µg/mL; in assay [9], 0.8 µg/mL; in [10], 3 µg/mL; in assay [11], 50 µg/mL. Further, in [2], the IC50 worked out at 6 nM.
